The record followed here is patent publication US9676714B2, “Sulfonylindole derivatives and method for preparing the same” (Daewoong Pharmaceutical Co., Ltd., priority 2013, dated 2017).

Each structure is given as a SMILES string. Counter-ions that a name gives are not always drawn.

For the test, the target named is T1, proton pump (H+/K+-ATPase) (Sus scrofa, UniProt P19156).
T1 construct: Gastric vesicles were prepared from hog stomach via centrifugal separation; from tissue; host or cells: hog stomach (gastric vesicles, method of Rabon et al. 1988)
T1 sequence (P19156 whole entry): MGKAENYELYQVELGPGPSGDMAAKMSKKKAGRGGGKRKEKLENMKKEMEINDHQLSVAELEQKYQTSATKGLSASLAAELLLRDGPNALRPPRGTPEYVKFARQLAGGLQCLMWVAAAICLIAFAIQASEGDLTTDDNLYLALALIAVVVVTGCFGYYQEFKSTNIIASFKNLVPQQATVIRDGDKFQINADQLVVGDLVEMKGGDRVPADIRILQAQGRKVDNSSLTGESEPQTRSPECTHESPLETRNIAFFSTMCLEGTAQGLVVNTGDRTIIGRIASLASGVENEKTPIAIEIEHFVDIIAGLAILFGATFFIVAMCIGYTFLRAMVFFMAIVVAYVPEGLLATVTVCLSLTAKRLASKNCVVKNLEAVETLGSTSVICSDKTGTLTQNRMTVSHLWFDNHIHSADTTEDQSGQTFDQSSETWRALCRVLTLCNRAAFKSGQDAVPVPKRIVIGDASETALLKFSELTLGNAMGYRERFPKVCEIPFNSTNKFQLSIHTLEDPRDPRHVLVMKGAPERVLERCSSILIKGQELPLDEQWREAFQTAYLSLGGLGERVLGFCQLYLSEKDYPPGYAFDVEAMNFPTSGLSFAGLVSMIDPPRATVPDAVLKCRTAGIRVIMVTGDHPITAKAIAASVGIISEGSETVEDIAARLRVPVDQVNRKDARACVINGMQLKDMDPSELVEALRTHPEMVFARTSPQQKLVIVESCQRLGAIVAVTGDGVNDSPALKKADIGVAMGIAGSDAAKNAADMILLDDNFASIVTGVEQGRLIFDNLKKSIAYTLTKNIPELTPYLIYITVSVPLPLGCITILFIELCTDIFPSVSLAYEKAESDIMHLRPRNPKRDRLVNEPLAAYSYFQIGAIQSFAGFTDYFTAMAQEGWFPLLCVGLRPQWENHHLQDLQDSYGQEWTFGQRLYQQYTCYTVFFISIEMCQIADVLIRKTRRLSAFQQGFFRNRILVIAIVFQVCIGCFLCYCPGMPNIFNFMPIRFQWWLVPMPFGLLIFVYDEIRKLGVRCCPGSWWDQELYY
T1 sequence (P18434 whole entry partner): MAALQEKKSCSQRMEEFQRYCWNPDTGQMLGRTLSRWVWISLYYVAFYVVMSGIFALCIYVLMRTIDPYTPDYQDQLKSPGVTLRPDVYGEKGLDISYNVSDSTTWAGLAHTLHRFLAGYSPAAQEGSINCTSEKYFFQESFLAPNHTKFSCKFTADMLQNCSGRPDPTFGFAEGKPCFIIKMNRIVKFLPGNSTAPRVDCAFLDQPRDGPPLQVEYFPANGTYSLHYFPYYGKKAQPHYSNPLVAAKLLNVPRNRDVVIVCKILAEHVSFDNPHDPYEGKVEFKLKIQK
The experiment in a line: Measurement of inhibitory effects on proton pump (H+/K+-ATPase) activities. In kind it is biochemical. The following applies: hog gastric vesicles, K+-specific H+/K+-ATPase activity, Tris-HCl buffer pH 7.4, 37° C. for 40 minutes, malachite green Pi readout. As to the method: 1) Preparation of Gastric Vesicles
Gastric vesicles were prepared from hog stomach via centrifugal separation (Edd C. Rabon et al., Preparation of Gastric H^+,K^+-ATPase, Methods in enzymology, vol. 157 Academic Press Inc., (1988), pp. 649-654). The protein contents of the thus prepared gastric vesicles were quantitated by Bicinchoninic Acid (BCA) kit.
2) Measurement of Inhibitory Effects on Proton Pump (H^+/K^+-ATPase) Activities
The inhibitory effects of the compounds of the present invention against proton pump activities were measured using a 96-well plate. In this assay, the K^+-specific H^+/K^+-ATPase activities were calculated based on the difference between the H^+/K^+-ATPase activity in the presence of K^+ and that in the absence of K. In the 96-well plate, 0.5% dimethyl sulfoxide (DMSO) in buffer was added to the negative and positive control groups, and the diluted compounds of the present invention were added to the test groups. All assays were performed in a reaction volume of 100 μl at room temperature. The reaction buffer solution (60 mmol/l Tris-HCl buffer, pH 7.4) including the hog gastric vesicles was added with DMSO and the compounds at various concentrations, and then further added with 10 μl of 10 mmol/1 adenosine triphosphate Tris buffer solution (60 mmol/l Tris-HCl buffer, pH 7.4) to initiate an enzyme reaction. […] The amount of monophosphate (Pi) in the reaction was measured at 570 nm using a micro plate reader (FLUOstar Omega, BMG LABTECH). The inhibition rates (%) were determined from the activity values of control groups and those of test compounds at various concentrations, and the […] of the test compounds were calculated based on the respective inhibition value (%) using the Logistic 4-parameter function of Sigmaplot 8.0 program.
As usually defined, the IC50 is the concentration needed to halve the response being measured. The compound `CNCc1cn(S(=O)(=O)c2cccc(OC(F)F)c2)c2cc(Cc3ccc(C)cc3Cl)ccc12` [Example 304, 1-(6-(2-chloro-4-methylbenzyl)-1-((3-(difluoromethoxy)phenyl)sulfonyl)-1H-indol-3-yl)-N-methylmethanamine] registered an IC50 of 600 nM.

In the case of `CNCc1cn(S(=O)(=O)c2cccc(F)c2)c2cc(Nc3ccc(Cl)nc3Cl)ncc12` [Example 357, N-(2,6-dichloropyridin-3-yl)-1-((3-fluorophenyl)sulfonyl)-3-((methylamino)methyl)-1H-pyrrolo[3,2-c]pyridin-6-amine hydrochloride], it took 950 nM to reach half-maximal inhibition (IC50).

Regarding `CNCc1cn(S(=O)(=O)c2cccc(OC(F)F)c2)c2cc(Nc3ccc(OC(F)(F)F)cc3C)ccc12` [Example 179, 1-((3-(difluoromethoxy)phenyl)sulfonyl)-N-(2-methyl-4-(trifluoromethoxy)phenyl)-3-((methylamino)methyl)-1H-indol-6-amine hydrochloride], the IC50 came out at 330 nM.

Compound `CNCc1cn(S(=O)(=O)c2cccnc2)c2cc(Cc3ccc(Cl)cc3C(F)(F)F)ccc12` [Example 275, 1-(6-(4-chloro-2-(trifluoromethyl)benzyl)-1-(pyridin-3-ylsulfonyl)-1H-indol-3-yl)-N-methylmethanamine hydrochloride] registered an IC50 of 1760 nM. This IC50 is about 5.3-fold higher than that of the compound before.

For `CNCc1cn(S(=O)(=O)c2cccnc2)c2cc(Nc3c(F)c(F)c(C(F)(F)F)c(F)c3F)ccc12` [Example 96, 3-((methylamino)methyl)-1-(pyridin-3-ylsulfonyl)-N-(2,3,5,6-tetrafluoro-4-(trifluoromethyl)phenyl)-1H-indol-6-amine hydrochloride], it took 1730 nM to reach half-maximal inhibition (IC50).

With `CNCc1cn(S(=O)(=O)c2cccc(C#N)c2)c2cc(Nc3ccc(C)cc3F)ccc12` [Example 227, 3-((6-((2-fluoro-4-methylphenyl)amino)-3-((methylamino)methyl)-1H-indol-1-yl)sulfonyl)benzonitrile hydrochloride], the IC50 amounted to 6490 nM. Against the preceding compound, the IC50 is about 3.8-fold higher.

Compound `CNCc1cn(S(=O)(=O)c2cccnc2)c2cc(-c3ccc(C)cc3Cl)ccc12` [Example 253, 1-(6-(2-chloro-4-methylphenyl)-1-(pyridin-3-ylsulfonyl)-1H-indol-3-yl)-N-methylmethanamine hydrochloride] showed an IC50 of 490 nM.

For the compound `CNCc1cn(S(=O)(=O)c2cncc(F)c2)c2cc(Nc3ccc(F)cc3Cl)cnc12` [Example 352, N-(2-chloro-4-fluorophenyl)-1-((5-fluoropyridin-3-yl)sulfonyl)-3-((methylamino)methyl)-1H-pyrrolo[3,2-b]pyridin-6-amine hydrochloride], half-maximal inhibition (IC50) was put at 250 nM.

`Cc1ccc(Nc2ccc3c(C(=O)N(C)C)cn(S(=O)(=O)c4cccnc4)c3c2)c(F)c1` [Example 322, 6-((2-fluoro-4-methylphenyl)amino)-N,N-dimethyl-1-(pyridin-3-ylsulfonyl)-1H-indol-3-carboxamide] showed an IC50 of 24000 nM.

`CNCc1cn(S(=O)(=O)c2cccc(OC(F)F)c2)c2cc(Cc3ccc(OC)nc3Cl)ccc12` [Example 296, 1-(6-((2-chloro-6-methoxypyridin-3-yl)methyl)-1-((3-(difluoromethoxy)phenyl)sulfonyl)-1H-indol-3-yl)-N-methylmethanamine] yielded an IC50 of 930 nM.

`CNCc1cn(S(=O)(=O)c2cccnc2)c2cc(Nc3c(F)cnc(F)c3F)ccc12` [Example 134, 3-((methylamino)methyl)-1-(pyridin-3-ylsulfonyl)-N-(2,3,5-trifluoropyridin-4-yl)-1H-indol-6-amine hydrochloride]: the IC50 came to 2050 nM.

`CNCc1cn(S(=O)(=O)c2cccc(OC(F)F)c2)c2cc(-c3cccnc3C(F)(F)F)ccc12` [Example 261, 1-(1-((3-(difluoromethoxy)phenyl)sulfonyl)-6-(2-(trifluoromethyl)pyridin-3-yl)-1H-indol-3-yl)-N-methylmethanamine hydrochloride] returned an IC50 of 9240 nM.

`CNCc1cn(S(=O)(=O)c2ccc(OC)cc2)c2cc(Nc3ccc(C)cc3Cl)ccc12` [Example 219, N-(2-chloro-4-methylphenyl)-1-((4-methoxyphenyl)sulfonyl)-3-((methylamino)methyl)-1H-indol-6-amine hydrochloride] displayed an IC50 of 270 nM.

Compound `COC(=O)c1cn(S(=O)(=O)c2cccnc2)c2cc(-c3ccc(OC)cc3)ccc12` [Example 335, methyl 6-(4-methoxyphenyl)-1-(pyridin-3-ylsulfonyl)-1H-indol-3-carboxylate] returned an IC50 of 1340 nM.

The compound `CNCc1cn(S(=O)(=O)c2cccc(OC(F)(F)F)c2)c2cc(Cc3ccc(OC)nc3Cl)ccc12` [Example 297, 1-(6-((2-chloro-6-methoxypyridin-3-yl)methyl)-1-((3-(trifluoromethoxy)phenyl)sulfonyl)-1H-indol-3-yl)-N-methylmethanamine] yielded an IC50 of 1190 nM.

For `CNCc1cn(S(=O)(=O)c2cccc(F)c2)c2cc(Nc3ccc(OC(F)(F)F)cc3OC)cnc12` [Example 343, 1-((3-fluorophenyl)sulfonyl)-N-(2-methoxy-4-(trifluoromethoxy)phenyl)-3-((methylamino)methyl)-1H-pyrrolo[3,2-b]pyridin-6-amine hydrochloride], the midpoint of inhibition, the IC50, lay at 1920 nM.

`CNCc1cn(S(=O)(=O)c2cccnc2)c2cc(Nc3cccnc3C)ccc12` [Example 105, 3-((methylamino)methyl)-N-(2-methylpyridin-3-yl)-1-(pyridin-3-ylsulfonyl)-1H-indol-6-amine hydrochloride]: half-maximal inhibition (IC50) required 880 nM.

`CNCc1cn(S(=O)(=O)c2ccc(F)c(F)c2)c2cc(Nc3ccc(C)cc3F)ccc12` [Example 237, 1-((3,4-difluorophenyl)sulfonyl)-N-(2-fluoro-4-methylphenyl)-3-((methylamino)methyl)-1H-indol-6-amine hydrochloride] yielded an IC50 of 990 nM. The IC50 values of the last two compounds are within 1.5-fold of each other.

`CNCc1cn(S(=O)(=O)c2cccnc2)c2cc(Cc3ccc(C(F)(F)F)cc3Cl)ccc12` [Example 276, 1-(6-(2-chloro-4-(trifluoromethyl)benzyl)-1-(pyridin-3-ylsulfonyl)-1H-indol-3-yl)-N-methylmethanamine hydrochloride] displayed an IC50 of 670 nM.

Regarding `CNCc1cn(S(=O)(=O)c2cccc(OC(F)(F)F)c2)c2cc(Nc3ccc(C)nc3F)ccc12` [Example 204, N-(2-fluoro-6-methylpyridin-3-yl)-3-((methylamino)methyl)-1-((3-(trifluoromethoxy)phenyl)sulfonyl)-1H-indol-6-amine hydrochloride], the IC50 turned out to be 500 nM. This IC50 and that of the compound before are within 1.5-fold of each other.

`CNCc1cn(S(=O)(=O)c2cccc(OC)c2)c2cc(Nc3ccc(OC)nc3Cl)ccc12` [Example 173, N-(2-chloro-6-methoxypyridin-3-yl)-1-((3-methoxyphenyl)sulfonyl)-3-((methylamino)methyl)-1H-indol-6-amine hydrochloride]: the IC50 worked out at 1190 nM. Compared with the last compound, the IC50 is about 2.4-fold higher.

`CNCc1cn(S(=O)(=O)c2cccc(Cl)c2)c2cc(Nc3ccc(Cl)nc3Cl)ccc12` [Example 159, 1-((3-chlorophenyl)sulfonyl)-N-(2,6-dichloropyridin-3-yl)-3-((methylamino)methyl)-1H-indol-6-amine hydrochloride] returned an IC50 of 340 nM.

On to `CNCc1cn(S(=O)(=O)c2cccnc2)c2cc(Nc3c(C)cc(Cl)cc3[N+](=O)[O-])ccc12` [Example 94, N-(4-chloro-2-methyl-6-nitrophenyl)-3-((methylamino)methyl)-1-(pyridin-3-ylsulfonyl)-1H-indol-6-amine hydrochloride], for which 780 nM corresponded to half-maximal inhibition (IC50).
